Data published in patent US20260285850A1, “SUBSTITUTED OXAZOLIDINONES AND IMIDAZOLINONES AS HERBICIDES” (FMC CORPORATION, priority 2023, published 2026).

How the values were obtained:
Format in all cases: in vivo
[1] = system: barnyardgrass (Echinochloa crus-galli); assay: Test A preemergence soil spray, visual injury rating 0-100; settings: 10 days
Method in brief: (§1)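 Visual injury ratings (0, no effect; 100, complete control) were assigned relative to untreated plants 10 days after treatment. Test chemicals, formulated with a surfactant-containing non-phytotoxic solvent, were applied in loam-sand soil either as a directed soil spray before emergence or to emerged plants, and plants were kept in a greenhouse.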

[2] = system: blackgrass (Alopecurus myosuroides); assay: as above; settings: 10 days
Method in brief: as §1

[3] = system: corn (Zea mays); assay: as above; settings: 10 days
Method in brief: as §1

[4] = system: green foxtail (Setaria viridis); assay: as above; settings: 10 days
Method in brief: as §1

[5] = system: kochia (Bassia scoparia); assay: as above; settings: 10 days
Method in brief: as §1

[6] = system: oat, wild (wild oat, Avena fatua); assay: as above; settings: 10 days
Method in brief: as §1

[7] = system: palmer (palmer amaranth, palmer pigweed, Amaranthus palmeri); assay: as above; settings: 10 days
Method in brief: as §1

[8] = system: ragweed (common ragweed, Ambrosia artemisiifolia); assay: as above; settings: 10 days
Method in brief: as §1

[9] = system: ryegrass, Italian (italian ryegrass, Lolium multiflorum); assay: as above; settings: 10 days
Method in brief: as §1

[10] = system: soybean (Glycine max); assay: as above; settings: 10 days
Method in brief: as §1

[11] = system: wheat (Triticum aestivum); assay: as above; settings: 10 days
Method in brief: as §1

[12] = system: barnyardgrass (Echinochloa crus-galli); assay: Test A postemergence application, visual injury rating 0-100
Method in brief: as §1

[13] = system: blackgrass (Alopecurus myosuroides); assay: as above
Method in brief: as §1

[14] = system: corn (Zea mays); assay: as above
Method in brief: as §1

[15] = system: galium (catchweed bedstraw, Galium aparine); assay: as above
Method in brief: as §1

[16] = system: green foxtail (Setaria viridis); assay: as above
Method in brief: as §1

[17] = system: horseweed (Erigeron canadensis); assay: as above
Method in brief: as §1

[18] = system: kochia (Bassia scoparia); assay: as above
Method in brief: as §1

[19] = system: oat, wild (wild oat, Avena fatua); assay: as above
Method in brief: as §1

[20] = system: palmer (palmer amaranth, palmer pigweed, Amaranthus palmeri); assay: as above
Method in brief: as §1

[21] = system: ragweed (common ragweed, Ambrosia artemisiifolia); assay: as above
Method in brief: as §1

[22] = system: ryegrass, Italian (italian ryegrass, Lolium multiflorum); assay: as above
Method in brief: as §1

[23] = system: soybean (Glycine max); assay: as above
Method in brief: as §1

[24] = system: wheat (Triticum aestivum); assay: as above
Method in brief: as §1

[25] = system: barnyardgrass (Echinochloa crusgalli); assay: Test B flooded paddy test, visual plant response rating 0-100; settings: 250 g ai/ha, Flood, applied to paddy water, evaluated after 13 days
Method in brief: (§2)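 Compounds applied to standing paddy water (3 cm above soil, maintained for the test duration) on 2-leaf-stage plants; visual rating vs controls at 13 days, greenhouse.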

[26] = system: ducksalad (Heteranthera limosa); assay: as above; settings: 250 g ai/ha, Flood, applied to paddy water, evaluated after 13 days
Method in brief: as §2

[27] = system: rice (Oryza sativa); assay: as above; settings: 250 g ai/ha, Flood, applied to paddy water, evaluated after 13 days
Method in brief: as §2

[28] = system: sedge, umbrella (small-flower umbrella sedge, Cyperus difformis); assay: as above; settings: 250 g ai/ha, Flood, applied to paddy water, evaluated after 13 days
Method in brief: as §2

[29] = 62 g ai/ha, 0 = no effect, 100 = complete control
[30] = 62 g ai/ha, postemergence, 10 days, 0 = no effect, 100 = complete control
[31] = Postemergence, 16 g ai/ha, greenhouse 10 days, 0 no effect, 100 complete control

## COC(=O)C1C=CC(NC(=O)C2(C)CN(c3cc(F)cc(F)c3)C(=O)O2)C1 (mixture of isomers) [Compound 161]
[1]; 16 g ai/ha, 0 to 100 scale
  Barnyardgrass plant response rating: 80
[1]; [29]
  Barnyardgrass plant response rating (0-100): 100
[2]; 16 g ai/ha, 0 to 100 scale
  Blackgrass plant response rating: 70
[2]; [29]
  Blackgrass plant response rating (0-100): 90
[3]; 16 g ai/ha, 0 to 100 scale
  Corn plant response rating: 30
[3]; [29]
  Corn plant response rating (0-100): 80
[4]; 16 g ai/ha, 0 to 100 scale
  Foxtail, Green plant response rating: 30
[4]; [29]
  Foxtail, Green plant response rating (0-100): 100
[5]; 16 g ai/ha, 0 to 100 scale
  Kochia plant response rating: 0
[5]; [29]
  Kochia plant response rating (0-100): 50
[6]; 16 g ai/ha, 0 to 100 scale
  Oat, Wild plant response rating: 30
[6]; [29]
  Oat, Wild plant response rating (0-100): 90
[7]; 16 g ai/ha, 0 to 100 scale
  Pigweed, Palmer plant response rating: 90
[7]; [29]
  Pigweed, Palmer plant response rating (0-100): 100
[8]; 16 g ai/ha, 0 to 100 scale
  Ragweed plant response rating: 10
[8]; [29]
  Ragweed plant response rating (0-100): 50
[9]; 16 g ai/ha, 0 to 100 scale
  Ryegrass, Italian plant response rating: 90
[9]; [29]
  Ryegrass, Italian plant response rating (0-100): 90
[10]; 16 g ai/ha, 0 to 100 scale
  Soybean plant response rating: 0
[10]; [29]
  Soybean plant response rating (0-100): 50
[11]; 16 g ai/ha, 0 to 100 scale
  Wheat plant response rating: 80
[11]; [29]
  Wheat plant response rating (0-100): 90
[12]; [30]
  Barnyardgrass plant response rating (0-100): 100
[12]; [31]
  Barnyardgrass plant response rating (0 to 100 scale): 80
[13]; [30]
  Blackgrass plant response rating (0-100): 90
[13]; [31]
  Blackgrass plant response rating (0 to 100 scale): 90
[14]; [30]
  Corn plant response rating (0-100): 100
[14]; [31]
  Corn plant response rating (0 to 100 scale): 100
[15]; [30]
  Galium plant response rating (0-100): 90
[15]; [31]
  Galium plant response rating (0 to 100 scale): 80
[16]; [30]
  Foxtail, Green plant response rating (0-100): 90
[16]; [31]
  Foxtail, Green plant response rating (0 to 100 scale): 60
[17]; [30]
  Horseweed plant response rating (0-100): 70
[17]; [31]
  Horseweed plant response rating (0 to 100 scale): 60
[18]; [30]
  Kochia plant response rating (0-100): 30
[18]; [31]
  Kochia plant response rating (0 to 100 scale): 0
[19]; [30]
  Oat, Wild plant response rating (0-100): 90
[19]; [31]
  Oat, Wild plant response rating (0 to 100 scale): 90
[20]; [30]
  Pigweed, Palmer plant response rating (0-100): 70
[20]; [31]
  Pigweed, Palmer plant response rating (0 to 100 scale): 40
[21]; [30]
  Ragweed plant response rating (0-100): 70
[21]; [31]
  Ragweed plant response rating (0 to 100 scale): 50
[22]; [30]
  Ryegrass, Italian plant response rating (0-100): 80
[22]; [31]
  Ryegrass, Italian plant response rating (0 to 100 scale): 70
[23]; [30]
  Soybean plant response rating (0-100): 70
[23]; [31]
  Soybean plant response rating (0 to 100 scale): 60
[24]; [30]
  Wheat plant response rating (0-100): 90
[24]; [31]
  Wheat plant response rating (0 to 100 scale): 90
[25]
  Plant response rating, Barnyardgrass (0 to 100 scale, 0 is no effect and 100 is complete control): 60
[26]
  Plant response rating, Ducksalad (0 to 100 scale, 0 is no effect and 100 is complete control): 80
[27]
  Plant response rating, Rice (0 to 100 scale, 0 is no effect and 100 is complete control): 85
[28]
  Plant response rating, Sedge, Umbrella (0 to 100 scale, 0 is no effect and 100 is complete control): 95
